# Assay results published in paper PMC4949396, “The effects of apremilast on the QTc interval in healthy male volunteers: a formal, thorough QT study” (International Journal of Clinical Pharmacology and …, 2016).
# pIC50: −log10 of the molar value. Where two headings read alike, the source gives them in different places. Marks after values point to notes of the source that are not given here.
# Tests used:
# healthy male subjects [1] = experiment: safety assessments (adverse events, vital signs, laboratory tests); assay type: in vivo, human; conditions: up to doses of 50 mg twice daily
# Method: Safety assessments were performed at clinic check-in, periodically throughout each treatment period, and at the end-of-study visit and included the measurement of vital signs, recording of standard 12-lead ECGs, collection of samples for clinical laboratory tests, and physical examinations. Adverse events (AEs) and concomitant medication use were assessed and recorded throughout the study.
# [2] = set-up: method as in PMID 21859393; conditions: cited from earlier work
# hERG potassium channel = target: T1, hERG potassium channel (Homo sapiens, UniProt Q12809); experiment: voltage-clamp study of hERG current in HEK293 cells expressing hERG; assay type: cell-based
# T1 construct: expressed in transfected cells; host or cells: HEK-293 cells stably expressing hERG
# Source text: This IC50 value is > 2 orders of magnitude greater than the maximum plasma concentration (Cmax) values observed in healthy male subjects and in PsA or rheumatoid patients at the highest doses studied. Prolongation of the QT interval is associated with a rare but dangerous ventricular arrhythmia, torsade de pointes, and drug-induced prolongation of the QT interval represents a significant risk. The current study was undertaken to provide definitive evaluation of the clinical potential for prolongation of the QT interval with apremilast.
# Furthermore, a structure-activity relationship study has shown that the structure of a PDE4 inhibitor can be optimized for high-potency PDE4 inhibition and minimize or eliminate its affinity for hERG channel by targeted modification of pharmacophores. The structure of apremilast was optimized for PDE4 inhibition and minimal affinity for the hERG channel.
# healthy male subjects [3] = experiment: thorough QT/QTc study, 24-hour digital Holter ECG (QTc, HR, PR); conditions: for decrease of time-matched, baseline-adjusted LS mean PR interval (ΔΔPR): 2 hours postdose; for effect on the QT/QTc interval: overall conclusion of the study
# Method: This was a single-center, randomized, crossover study with 4 treatments, 4 periods, and 4 sequences conducted in healthy male subjects. Apremilast (Otezla; Celgene Corporation, Summit, NJ, USA) was administered in a double-blind manner with matching placebo, and moxifloxacin was administered in an open-label manner. The core central electrocardiogram (ECG) laboratory staff, including those reading the ECGs, was blinded to treatment, sequence time, and subject identifiers.
# The 4 treatments evaluated in this study included an apremilast-matched placebo administered twice daily (b.i.d.) for 9 doses (~ 5 days), a clinically relevant dose of apremilast 30 mg administered b.i.d. for 9 doses, a supratherapeutic dose of apremilast 50 mg administered b.i.d. for 9 doses, and placebo administered on days 1 – 4 followed by a single dose of moxifloxacin 400 mg on day 5. Subjects fasted for at least 8 hours before the morning dose or before the start of Holter monitoring on days –1 and 5.
# ECGs were analyzed for ventricular HR, PR, QRS, RR, and QT intervals and morphological changes. Mean of the triplicate ECGs at each nominal time point was used for all reporting and analysis; however, individual values were used to calculate the correction coefficient (γ) for QTcI. The QTc corrections were individual correction by QTcI = QT/RR^γ, Fridericia’s by QTcF = QT/RR^0.33, and Bazett’s by QTcB = QT/RR^0.5. Individual correction coefficient, γ, was estimated using linear regression of log QT on log RR for each subject using all baseline ECG assessments collected before day 1 dosing in period 1 within a subject. Change from baseline was calculated as the average of the three predose assessments on day 1 of the corresponding treatment period subtracted from the value (i.e., QTc) on day 5 at a given time t. Double-delta (ΔΔ) values for various cardiac parameters (i.e., ΔΔQTcI, ΔΔQTcB, etc.) were determined as the change from baseline value relative to placebo at the same scheduled time.
# At each time point, difference in least-squares (LS) means was estimated between the LS means of each apremilast dose and placebo (with placebo as reference). Two-sided 90% confidence intervals (CIs) were produced for the comparisons.
# The effect of QTcI for moxifloxacin was assessed at 1, 1.5, 2, 3, and 4 hours postdose to assess assay sensitivity. At each time point, the ΔΔ value was estimated between the LS means of moxifloxacin and placebo. […] If at least one of the CIs completely exceeded 5 ms, then the assay was declared sensitive.
# For secondary analyses, a Student’s t-test was performed comparing each dose of apremilast vs. placebo and between moxifloxacin and placebo at each time point. Two-sided 90% CIs were produced for the comparisons. The effect of apremilast on QTcF, QTcB, HR, PR, and QT was assessed using the same linear mixed model from the primary analysis. […] The model included treatment group, period, sequence, and baseline ECG interval as a covariate, and subject nested within sequence as a random effect.
# If a subject experienced > 1 episode of a particular outlier event, the subject was counted only once for that event.
# healthy male subjects [4] = experiment: exploratory PK/PD relationship between ΔΔQTcI and plasma concentration (linear mixed-effect model); assay type: in vivo, human; conditions: for relationship between changes in QT/QTc interval and plasma concentration: in vivo; for estimated slope (SE) of ΔΔQTcI vs plasma concentration: linear regression, random effect model, pooled doses
# Method: The PK/PD analysis was performed using a linear mixed-effect model to explore the relationship between the ΔΔQTcI and plasma concentrations for apremilast, M12, M14, and M16, and to estimate the population slope (β) and standard error of slope (SEβ). The expected maximum ΔΔQTcI effect for each dose and each analyte was estimated using the slope and average Cmax with one-sided upper limit 95% CIs.
# [5] = plasma pharmacokinetics on day 5 after multiple oral doses of apremilast in healthy male subjects; assay type: in vivo, human; conditions: for AUC / AUC0–τ, geometric mean (geometric CV%): τ 12 hours; for AUC: read-out: AUC0–τ, geometric mean (geometric CV%); for Tmax: read-out: tmax, median (minimum–maximum)
# Method: PK parameters were derived using noncompartmental methods with WinNonlin® Professional version 5.1.2 (Pharsight Corporation, Mountain View, CA, USA). […] For determination of PK parameters (terminal elimination rate constant (Kel), time to maximum plasma concentration (tmax), and terminal half-life (t1/2)), plasma concentrations for apremilast and its major metabolites below the limit of quantitation (BLQ) were treated as missing except for the calculation of area under the plasma concentration-time curve (AUC). To calculate AUC, BLQ or missing concentrations in the beginning and end of profile were replaced with zero, and BLQ or missing concentrations in the middle of the profile were interpolated.
# Blood samples were collected in lithium heparin tubes and plasma was separated. The plasma samples, fortified with Sorensen’s buffer (25 mM citrate, pH 1.5) containing amastatin 20 µM (1 : 1/v : v), were analyzed by two validated liquid chromatography/tandem mass spectrometry methods, one for determination of apremilast and the other for its metabolites M12 (CC-16166), M14 (CC-16793), and M16 (CC-16557).
# [6] = set-up: method as in PMID 26097790; conditions: 30 mg b.i.d., cited from earlier work
# [7] = both apremilast doses, all time points
# [8] = both apremilast doses, all values
# [9] = apremilast 50 mg b.i.d., day 5, plasma
# [10] = male, human, oral, apremilast 30 mg b.i.d., day 5, plasma
# [11] = male, human, oral, apremilast 50 mg b.i.d., day 5, plasma
# [12] = patients with rheumatoid arthritis or PsA, n = 15
# [13] = apremilast 30 mg b.i.d., day 5, plasma
# T1 sequence (Q12809 whole entry): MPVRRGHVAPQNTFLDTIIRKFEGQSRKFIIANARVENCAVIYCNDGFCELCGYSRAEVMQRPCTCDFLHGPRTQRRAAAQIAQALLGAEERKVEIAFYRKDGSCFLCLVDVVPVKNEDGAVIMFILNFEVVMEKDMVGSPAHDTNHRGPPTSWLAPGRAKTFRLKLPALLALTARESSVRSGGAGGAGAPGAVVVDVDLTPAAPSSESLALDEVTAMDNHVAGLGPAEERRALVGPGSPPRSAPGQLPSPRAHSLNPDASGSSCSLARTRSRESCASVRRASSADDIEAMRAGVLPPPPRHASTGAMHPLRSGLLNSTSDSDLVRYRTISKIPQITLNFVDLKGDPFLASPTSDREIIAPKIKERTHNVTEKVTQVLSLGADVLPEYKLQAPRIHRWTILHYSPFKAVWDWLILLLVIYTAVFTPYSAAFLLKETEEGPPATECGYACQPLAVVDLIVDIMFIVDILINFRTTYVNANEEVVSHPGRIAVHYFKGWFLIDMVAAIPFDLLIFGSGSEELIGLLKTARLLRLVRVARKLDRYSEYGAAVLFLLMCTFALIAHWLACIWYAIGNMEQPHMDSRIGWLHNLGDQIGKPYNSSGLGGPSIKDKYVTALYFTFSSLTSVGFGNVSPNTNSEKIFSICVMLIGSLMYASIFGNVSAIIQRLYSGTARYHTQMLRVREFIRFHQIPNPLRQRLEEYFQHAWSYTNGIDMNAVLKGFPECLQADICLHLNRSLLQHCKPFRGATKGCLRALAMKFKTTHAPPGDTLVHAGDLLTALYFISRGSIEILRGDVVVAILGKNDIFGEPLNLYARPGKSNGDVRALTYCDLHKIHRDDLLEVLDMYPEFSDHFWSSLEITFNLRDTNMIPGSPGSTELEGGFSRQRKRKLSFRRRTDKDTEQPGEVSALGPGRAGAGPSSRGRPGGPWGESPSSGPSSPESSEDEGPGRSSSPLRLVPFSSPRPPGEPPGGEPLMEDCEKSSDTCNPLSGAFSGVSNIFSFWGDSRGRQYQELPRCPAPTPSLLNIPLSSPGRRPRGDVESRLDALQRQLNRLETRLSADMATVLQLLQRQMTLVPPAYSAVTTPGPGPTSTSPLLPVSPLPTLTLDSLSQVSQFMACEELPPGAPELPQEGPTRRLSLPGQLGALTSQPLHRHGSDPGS
compound,measurement,setting,value
"CCOc1cc([C@@H](CS(C)(=O)=O)N2C(=O)c3cccc(NC(C)=O)c3C2=O)ccc1OC [apremilast, (S)-N-[2-[1-(3-ethoxy-4-methoxyphenyl)-2-methanesulfonylethyl]-1,3-dioxo-2,3-dihydro-1H-isoindol-4-yl] acetamide]",safety and tolerability,healthy male subjects [1],safe and well tolerated
same,half-life,[2]; humans,6 to 9 h
same,Hill coefficient of hERG current inhibition,hERG potassium channel; HEK293 cells expressing hERG,0.9
same,pIC50,"hERG potassium channel; HEK293 cells expressing hERG, read-out: hERG current inhibition, estimated half maximal inhibitory concentration (IC50)",3.73
same,IC50,"hERG potassium channel; HEK293 cells expressing hERG, same value in mass units, read-out: hERG current inhibition, estimated IC50 (converted)",184 µM
same,affinity for the hERG channel,"hERG potassium channel; voltage-clamp, HEK-293 cells stably expressing hERG",low affinity
same,hERG IC50 relative to Cmax at the highest doses studied,hERG potassium channel; vs Cmax in healthy male subjects and PsA or rheumatoid patients,> 2 orders of magnitude
same,LS mean ΔΔQTcI,"healthy male subjects [3]; apremilast 30 mg b.i.d., day 5, all time points",–4.2 to 0.7 ms
same,"increase of time-matched, baseline-adjusted LS mean HR (ΔΔHR)","healthy male subjects [3]; apremilast 30 mg dose, 2 hours after administration",3.1 bpm
same,"decrease of time-matched, baseline-adjusted LS mean PR interval (ΔΔPR)",healthy male subjects [3]; apremilast 30 mg dose,2.8 ms
same,"decrease of time-matched, baseline-adjusted LS mean PR interval (ΔΔPR)",healthy male subjects [3]; apremilast 50 mg dose,3.5 ms
same,"increase of time-matched, baseline-adjusted LS mean HR (ΔΔHR)","healthy male subjects [3]; apremilast 50 mg dose, 3 hours after administration",4.4 bpm
same,LS mean ΔΔQTcI,"healthy male subjects [3]; both apremilast doses (30 and 50 mg b.i.d.), all time points",< 1 ms
same,upper limit of two-sided 90% CI of ΔΔQTcB,healthy male subjects [3]; [7],below 10 ms
same,upper limit of two-sided 90% CI of ΔΔQTcF,healthy male subjects [3]; [7],below 10 ms
same,LS mean ΔΔQTcB,healthy male subjects [3]; [8],< 5 ms
same,LS mean ΔΔQTcF,healthy male subjects [3]; [8],< 1 ms
same,subjects with maximum on-treatment QT/QTc interval > 480 ms or change from baseline > 60 ms,"healthy male subjects [3]; categorical analysis, while receiving apremilast",No subject
same,effect on the QT/QTc interval,healthy male subjects [3],did not prolong the QT interval
same,relationship between changes in QT/QTc interval and plasma concentration,healthy male subjects [4],No trend or relationship
same,estimated slope (SE) of ΔΔQTcI vs plasma concentration,healthy male subjects [4],–0.0016 (0.0027)
same,increase of AUC with increasing dose,[5]; 50 mg b.i.d. vs 30 mg b.i.d.,~ 1.5 times
same,increase of Cmax with increasing dose,[5]; 50 mg b.i.d. vs 30 mg b.i.d.,~ 1.4 times
same,"t1/2, geometric mean (geometric CV%)",[5]; [9],7.28 (29.1) h
same,AUC,[5]; [10],2260 ng·h/mL
same,half-life,"[5]; male, human, oral, apremilast 30 mg b.i.d., day 5, plasma, read-out: t1/2, geometric mean (geometric CV%) (converted)",6.41 h
same,Tmax,[5]; [10],2 h
same,AUC,[5]; [11],3450 ng·h/mL
same,Tmax,[5]; [11],2 h
same,Cmax,"[5]; male, human, plasma, oral, 30 mg, apremilast 30 mg b.i.d., day 5, plasma, read-out: Cmax, geometric mean (geometric CV%)",352 ng/mL
same,Cmax,"[5]; male, human, plasma, oral, 50 mg, apremilast 50 mg b.i.d., day 5, plasma, read-out: Cmax, geometric mean (geometric CV%)",507 ng/mL
same,Cmax,"[5]; male, human, plasma, oral, 50 mg, healthy subjects, 50 mg b.i.d., read-out: maximum Cmax",1060 ng/mL
same,half-life,"[5]; male, human, plasma, oral, across both doses (30 and 50 mg b.i.d.), read-out: mean t1/2",6 to 7 h
same,AUC(0-t),"[5]; male, human, plasma, oral, healthy subjects, 50 mg b.i.d., read-out: maximum AUC0–12",9350 ng·h/mL
same,maximum AUC0–12,[6]; PsA and psoriasis patients,"8,280 ng×h/mL"
same,maximum Cmax,[6]; PsA and psoriasis patients,981 ng/mL
same,geometric mean Cmax,[6]; [12],554 ng/mL
same,mean AUC0–12,[6]; [12],"3,670 ng×h/mL"
COc1c(N2C[C@@H]3CCCN[C@@H]3C2)c(F)cc2c(=O)c(C(=O)O)cn(C3CC3)c12 [moxifloxacin],effect on the QT/QTc interval,healthy male subjects [3],significantly increased the QT/QTc interval
O-des-methyl-[S]-CC-10004-glucuronide [M12],pharmacological activity,[2]; glucuronide metabolites,not pharmacologically active
same,half-life,[2]; humans,~ 16 hours
same,metabolite to total radioactivity ratio,[2]; humans,~ 39%
same,relationship between changes in QT/QTc interval and plasma concentration,healthy male subjects [4],No trend or relationship
same,estimated slope (SE) of ΔΔQTcI vs plasma concentration,healthy male subjects [4],–0.0006 (0.0028)
same,"t1/2, geometric mean (geometric CV%)",[5]; [13],12.18 (25.9)^c h
same,"tmax, median (minimum–maximum)",[5]; [13],3.0 (1.0 – 12.0) h
same,"AUC0–τ, geometric mean (geometric CV%)",[5]; [13],"3,930 (23.9) ng×h/mL"
same,"Cmax, geometric mean (geometric CV%)",[5]; [9],659.1 (21.0) ng/mL
same,"t1/2, geometric mean (geometric CV%)",[5]; [9],12.79 (29.0)^e h
same,"tmax, median (minimum–maximum)",[5]; [9],3.0 (0.5 – 6.0) h
same,"AUC0–τ, geometric mean (geometric CV%)",[5]; [9],"5,968 (20.0) ng×h/mL"
same,AUC of metabolite relative to apremilast,"[5]; plasma, day 5",~ 1.7 fold
same,Cmax of metabolite relative to apremilast,"[5]; plasma, day 5",~ 1.25 fold
